{"source": "patent US11986540B2", "about": "“Compositions including pafolacianine for the identification of malignant lesions” (ON TARGET LABORATORIES, LLC., priority 2022, dated 2024)", "key": {"[1]": {"biological_target": "T1, FR (Homo sapiens, UniProt P15328)", "T1 construct": "KB cells (a derivative of HeLa cells) that over-express FR; endogenous in cells; host or cells: KB cells (HeLa derivative)", "T1 sequence (P15328 25-234)": "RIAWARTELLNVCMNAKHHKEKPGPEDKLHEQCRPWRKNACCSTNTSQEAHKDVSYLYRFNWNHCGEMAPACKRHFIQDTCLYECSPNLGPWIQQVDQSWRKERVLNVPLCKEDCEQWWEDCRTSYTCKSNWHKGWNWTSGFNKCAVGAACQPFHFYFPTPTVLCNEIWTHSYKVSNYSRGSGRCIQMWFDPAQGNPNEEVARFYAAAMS", "test": "[3H]-folic acid competition binding on KB cells"}, "[2]": {"test": "Plasma protein binding, equilibrium dialysis, dog plasma", "format": "in vitro ADME", "settings": "Beagle, read-out: mean (±SD) percentage of plasma protein bound (converted)", "method": "(§1) The plasma protein binding of pafolacianine was studied in vitro in fresh human, Sprague Dawley rat, and Beagle dog plasma using equilibrium dialysis. Pafolacianine was introduced into plasma samples, in duplicate, resulting in a final concentration of 5 μM. The mean (±SD) percentage of plasma protein bound pafolacianine was 99.1±0.1%, 98.6±0.1%, and 93.7±1.5% for rat, dog and human, respectively. Pafolacianine was highly bound to plasma protein in all species examined."}, "[3]": {"test": "Plasma protein binding, equilibrium dialysis, human plasma", "format": "in vitro ADME", "settings": "human, plasma", "method": "as §1"}, "[4]": {"tested_on": "plasma protein", "test": "Plasma protein binding, equilibrium dialysis, human plasma", "format": "in vitro ADME", "settings": "human plasma, 5 μM", "method": "as §1"}, "[5]": {"test": "Embryo-fetal development study in rats", "format": "in vivo", "method": "Pafolacianine was intravenously administered at doses of, during the period of organogenesis namely, 0.015, 0.15, and 1.5 mg/kg/day from gestational day (GD) 6 to GD17 in rats (human equivalent doses (HEDs) of 0.002, 0.024 and 0.242 mg/kg/day) and 0.3, 1, and 3 mg/kg/day from GD7 to GD20 in rabbits (HEDs of 0.097, 0.323 and 0.968 mg/kg/day). […] No-Observed-Adverse-Effect-Levels were 1.5 mg/kg/day in rats and 3 mg/kg/day in rabbits."}}, "data": [{"smiles": "CC1(C)C(=CC=C2CCCC(C=CC3=[N+](CCCCS(=O)(=O)[O-])c4ccc(S(=O)(=O)O)cc4C3(C)C)=C2Oc2ccc(CC(NC(=O)c3ccc(NCc4cnc5nc(N)[nH]c(=O)c5n4)cc3)C(=O)O)cc2)N(CCCCS(=O)(=O)O)c2ccc(S(=O)(=O)O)cc21", "note": "(stereo not shown) [pafolacianine]", "values": [{"measurement": "competition with [3H]-folic acid for the receptor", "setting": "[1]", "value": "competed well"}, {"measurement": "fraction unbound at 5 μM", "setting": "[2]", "value": 0.014}, {"measurement": "fraction unbound at 5 μM", "setting": "[3]", "value": 0.063}, {"measurement": "mean (±SD) percentage of plasma protein bound", "setting": "[4]", "value": "93.7±1.5", "unit": "%"}, {"measurement": "Estimated systemic exposure relative to human exposure at 0.025 mg/kg (AUC comparison)", "setting": "[5]; rat", "value": 158, "unit": "times"}, {"measurement": "maternal toxicity and embryo-fetal development toxicity", "setting": "[5]; rats, 0.015, 0.15, 1.5 mg/kg/day IV", "value": "No significant drug-related maternal toxicity and embryo-fetal development toxicity"}, {"measurement": "No-Observed-Adverse-Effect-Level", "setting": "[5]; rats, IV, GD6 to GD17", "value": 1.5, "unit": "mg/kg/day"}]}]}
